From patent US10183011B2, “Anti-depression compounds” (Board of Regents of the University of Texas System, priority 2009, dated 2019) come the findings set out here.

Structures are written as SMILES. Entries after “also recorded” stand apart in the source; their conditions may differ.

Assay [1] has as its system U2OS cells. Put plainly: Calcium ionophore A23187-induced loss of mitochondrial membrane potential (TMRM dye release). The assay is classed as cell-based. From the text: FIG. 22A, FIG. 22B, FIG. 22C, FIG. 22D, FIG. 22E and FIG. 22F: Example 45 Compound Preserves Mitochondrial Membrane Potential in Parallel to Proneurogenic Activity U2OS cells were loaded with tetramethylrhodamine methyl ester (TMRM) dye and then exposed to the calcium ionophore A23187 either in the presence or absence of test compounds. Example 45 Compound (FIG. 22A) preserved mitochondrial membrane potential following exposure to the calcium ionophore A23187 in a dose-dependent manner. The protective effect of P7C3 was enantiomeric specific. […] Each compound was evaluated in triplicate with similar results.
Extensive evidence pioneered by the laboratory of Xiaodong Wang has shown that an intrinsic pathway leading to programmed cell death emanates from mitochondria (Liu et al., Cell 1996, 86, 147-157; Yang et al., Science 1997, 275, 1129-1132). With the help of the Wang lab, assays were established to test whether Example 45 Compound might protect mitochondria from calcium-induced dissolution (Distelmaier et al., Cytometry A 2008, 73, 129-138). Tetramethylrhodamine methyl ester (TMRM) is a cell-permeant, cationic red-orange fluorescent dye that is readily sequestered by active mitochondria. When loaded with TMRM dye, vehicle-only treated cells released the dye within 15 minutes of exposure to the calcium ionophore A23187. By contrast, dye release was prevented in cells exposed to as little as […] of Example 45 Compound (FIG. 18A).
Since P7C3 ameliorates the death of newborn neurons in the dentate gyrus in living mice, it is possible that its function might relate to mitochondrial integrity. Assays were established to test whether P7C3 might protect cultured U2OS cells from calcium-induced mitochondrial dissolution (Distelmaier et al., Cytometry A 2008, 73, 129-138). Tetramethylrhodamine methylester (TMRM) dye is sequestered by active mitochondria, and, when loaded with TMRM, vehicle-treated cells released the dye within 15 rain of exposure to the calcium ionophor A23 187.

The test system of assay [2] is G93A-SOD1 mutant mice. Put plainly: Walking gait (pawprint analysis) in G93A-SOD1 mice, treatment from day 80. Type of assay: in vivo, mouse. The conditions noted are these: 20 mg/kg/day from day 80. Here is the method:
FIG. 36A and FIG. 36B. P7C3A20 preserves walking gait when administered at the time of disease onset to G93A-SOD1 mutant mice. […] Front and back stride were collected as a straight line from back paw print to the following paw print. Back-front distance was collected as a straight line from back paw print to the corresponding front paw print. 20 measurements (10 on each side) for each parameter were measured per mouse, and 20 mice per group were evaluated at 90 and 118 day time points. All measurements were conducted blind to treatment group, and the student's t test was used for statistical comparison of a treatment group to its matched vehicle group. FIG. 36B—At 90 days, there were no differences between any groups in back stride, front stride and back-front distance. […] Back stride and front stride were preserved to near-normal levels in P7C3A20 treated mice on day 118. By day 132, P7C3 and Dimebon treated mice were too sick to participate in the task. At this time point, P7C3A20 treated mice continued to show normalized back stride and front stride levels.
Analysis of walking gait offers a second means of assessing motor limb strength and coordination in rodent models of ALS. We conducted this analysis in the same mice used for the accelerating rotarod task, at three time points: 90, 118 and 132 days. Briefly, the front paws of each test mouse were dipped in orange tempera paint, and the back paws in blue tempera paint. […] Key parameters of the pawprints were then manually measured, as described in Methods. […]
Five measurements were taken: front and back stride, front and back width, and front to back distance, as described in Current Protocols for Neuroscience. […] Width from paw print was measured by drawing a line at a 90 degree angle from the line connecting the stride previous and the paw being analyzed. The distance was recorded as length of line from paw to the stride line opposite the paw print. […]
Pawprints were recorded at 90, 118 and 132 days of age. […]

In the case of `OC(CNc1ccccc1)Cn1c2ccc(Br)cc2c2cc(Br)ccc21` (stereo not drawn) [Example 45 Compound], in assay [1], the “lowest amount that prevented TMRM dye release” value is reported as at most 10 ng.
For the compound `Cc1ccc2c(c1)c1c(n2CCc2ccc(C)nc2)CCN(C)C1` [Dimebon, 2,3,4,5-Tetrahydro-2,8-dimethyl-5-(2-(6-methyl-3-pyridyl)ethyl)-1H-pyrido(4,3-b)indole, reference compound], the “walking gait (back stride, front stride, back-front distance)” value (“walking gait” for short) in assay [2] is on record as “none of these parameters in the walking gait analysis at 20 mg/kg/day were significantly improved”.
On to `COc1cccc(NCC(F)Cn2c3ccc(Br)cc3c3cc(Br)ccc32)c1` (stereo not drawn) [Example P7C3A20, N-(3-(3,6-dibromo-9H-carbazol-9-yl)-2-fluoropropyl)-3-methoxyaniline], for which the “preservation of mitochondrial membrane potential” value in assay [1] (TMRM dye) is reported as “protection of mitochondrial membrane permeability was observed at an enhanced level; also recorded: exhibited dye release protection at all doses tested”. In assay [2], the “walking gait” value is recorded as “helps preserve walking gait”.
For the compound `OC(CNc1ccccc1)Cn1c2ccc(Br)cc2c2cc(Br)ccc21` (stereo not drawn) [Example P7C3], in assay [1] (U2OS cells), the “lowest concentration that blocked TMRM dye release” value is listed as at most 10 nM. For the same compound, in assay [2], the “walking gait” value was “none of these parameters in the walking gait analysis at 20 mg/kg/day were significantly improved”.
